Measurements as given in patent US8697385B1, “Protein controlling synthesis of collagen and associated methods” (Florida State University Research Foundation, Inc., priority 2009, dated 2014).

Assays:
Assay type in all cases: cell-based, human
[1] = tested on: LARP6 and nonmuscle myosin; test: Coimmunoprecipitation of nonmuscle myosin IIB with HA-tagged LARP6; conditions: lung fibroblasts; puromycin 200 μg/ml 2 h vs cycloheximide
Protocol: (§1) ML-7, blebbistatin, cytochalasin B, puromycin, and cycloheximide were purchased from Sigma. ML-7 was used at 40 μM, blebbistatin was used at 100 μM, and cytochalasin B was used at 20 μM. Cells were incubated with the drugs for 16 h before analysis. Puromycin (200 μg/ml) and cycloheximide (100 μg/ml) were added to the cells for 2 h. Human lung fibroblasts have been described previously.16 Scleroderma fibroblasts were purchased from the European Collection of Cell Cultures (cell line BM0070) and derived from the skin of a scleroderma patient. MEFs were derived from knock-in mice in which the 5′SL of the collagen α1(I) gene has been mutated (Parsons et al., submitted). Several independent cell isolates were used throughout the study. All cells were cultured in Dulbecco's modified Eagle's medium supplemented with 10% fetal bovine serum for up to 10 passages. Plasmid constructs and adenovirus preparation. […] [^32P]dCTP was included in the PCR step to label the products, which were resolved on sequencing gels, as described previously.^8,31,49,50 When RNA from polysomal fractions was analyzed, an equal aliquot of each fraction was used. […]
One of the roles of nonmuscle myosin filaments may be to present collagen mRNAs to ribosomes. Therefore, we assessed if the association of collagen mRNAs with nonmuscle myosin is dependent on intact polysomes. […]

[2] = tested on: nonmuscle myosin IIB; test: Immunoprecipitation of nonmuscle myosin IIB and RT-PCR of collagen mRNAs; conditions: lung fibroblasts; cycloheximide 100 μg/ml or puromycin 200 μg/ml, 2 h
Protocol: as §1, with “submitted).” for “submitted). Several independent cell isolates were used throughout the study. All cells were cultured in Dulbecco's modified Eagle's medium supplemented with 10% fetal bovine serum for up to 10 passages. Plasmid constructs and adenovirus preparation.”
(§2) One of the roles of nonmuscle myosin filaments may be to present collagen mRNAs to ribosomes. Therefore, we assessed if the association of collagen mRNAs with nonmuscle myosin is dependent on intact polysomes. […] We then immunoprecipitated nonmuscle myosin from lung fibroblasts treated with cycloheximide or puromycin and analyzed if this can change the pull-down of collagen mRNAs. As control, the association with vimentin was analyzed in the same samples (FIG. 9b). […]

[3] = tested on: polysomes; test: Fractionation of polysomes on sucrose gradients; conditions: 15-45% sucrose gradient, Western blot; puromycin or ML-7 treatment
Protocol: ML-7, blebbistatin, cytochalasin B, puromycin, and cycloheximide were purchased from Sigma. ML-7 was used at 40 μM, blebbistatin was used at 100 μM, and cytochalasin B was used at 20 μM. Cells were incubated with the drugs for 16 h before analysis. Puromycin (200 μg/ml) and cycloheximide (100 μg/ml) were added to the cells for 2 h. Human lung fibroblasts have been described previously.16 Scleroderma fibroblasts were purchased from the European Collection of Cell Cultures (cell line BM0070) and derived from the skin of a scleroderma patient. MEFs were derived from knock-in mice in which the 5′SL of the collagen α1(I) gene has been mutated (Parsons et al., submitted). Several independent cell isolates were used throughout the study. All cells were cultured in Dulbecco's modified Eagle's medium supplemented with 10% fetal bovine serum for up to 10 passages. Plasmid constructs and adenovirus preparation. The HA-tagged LARP6 clone and the deletion mutants have been described previously.^16 Adenoviruses were constructed by recloning of the constructs into the pAdCMVTRACK vector, followed by recombination with the pAdEasy vector and amplification, as described previously.^48 Expression of each construct was verified by Western blot analysis. The viruses made express both the full-size test protein and the green fluorescent protein (GFP), which is encoded by an independent transcription unit.^48 Expression of GFP served as control for viral transduction. RT-PCR analysis Total cellular RNA was isolated using an RNA isolation kit (Sigma). RT-PCRs were performed with 100 ng of total RNA or using rTth reverse transcriptase (Boca Scientific, Boca Raton, Fla.). [^32P]dCTP was included in the PCR step to label the products, which were resolved on sequencing gels, as described previously.^8,31,49,50 When RNA from polysomal fractions was analyzed, an equal aliquot of each fraction was used. The number of cycles was adjusted to within the linear range of the reaction. The primers used for RT-PCR were as follows: h-collagen α1(I), 5′ primer […] (SEQ ID NO:3) and 3′ primer […] (SEQ ID NO:4); h-collagen α2(I), 5′ primer […] (SEQ ID NO:5) and 3′ primer […] (SEQ ID NO:6).
Polysomes were fractionated as described previously.^16 Sucrose fractions (0.5 ml) were collected, and total RNA was extracted by phenol/chloroform and isopropanol precipitation. Equivalent amounts of each fraction were analyzed by RT-PCR. Total proteins were extracted from sucrose fractions by trichloroacetic acid precipitation, and equivalent amounts were analyzed by Western blot analysis.
One of the roles of nonmuscle myosin filaments may be to present collagen mRNAs to ribosomes. Therefore, we assessed if the association of collagen mRNAs with nonmuscle myosin is dependent on intact polysomes. […] Only the anti-myosin antibody immunoprecipitated collagen α1(I) and α2(I) mRNAs (lane 1). We then immunoprecipitated nonmuscle myosin from lung fibroblasts treated with cycloheximide or puromycin and analyzed if this can change the pull-down of collagen mRNAs. As control, the association with vimentin was analyzed in the same samples (FIG. 9b). […] The association of collagen mRNAs with vimentin increased after the dissociation of polysomes (lanes 3 and 4). […] To assess if nonmuscle myosin copurifies with polysomes, we fractionated polysomes on sucrose gradients^16 and analyzed for the presence of nonmuscle myosin in the fractions using Western blot analysis (FIG. 9f). […]

[4] = tested on: myosin IIB; test: Western blot analysis of total nonmuscle myosin IIB level; conditions: lung fibroblasts; puromycin 200 μg/ml 2 h vs cycloheximide-treated cells
Protocol: as §1, with “passages.” for “passages. Plasmid constructs and adenovirus preparation.”
Protein concentration was estimated by the Bradford assay, with bovine serum albumin as standard.^51 Western blot analyses of cellular proteins were performed using 50 μg of protein. […] The medium was collected, and an aliquot was analyzed directly by Western blot analysis. […]

[5] = tested on: vimentin; test: Immunoprecipitation of vimentin and RT-PCR of collagen mRNAs; conditions: lung fibroblasts; puromycin (dissociation of polysomes) vs cycloheximide
Protocol: as §1, with “submitted).” for “submitted). Several independent cell isolates were used throughout the study. All cells were cultured in Dulbecco's modified Eagle's medium supplemented with 10% fetal bovine serum for up to 10 passages. Plasmid constructs and adenovirus preparation.”
as §2

[6] = tested on: LARP6 and vimentin; test: Coimmunoprecipitation of vimentin with HA-tagged LARP6; conditions: lung fibroblasts; puromycin 200 μg/ml 2 h vs cycloheximide
Protocol: as §1, with “submitted).” for “submitted). Several independent cell isolates were used throughout the study. All cells were cultured in Dulbecco's modified Eagle's medium supplemented with 10% fetal bovine serum for up to 10 passages. Plasmid constructs and adenovirus preparation.”
as §2

For `COc1ccc(C[C@H](N)C(=O)N[C@H]2[C@@H](O)[C@H](n3cnc4c(N(C)C)ncnc43)O[C@@H]2CO)cc1` [puromycin], the “interaction of LARP6 and nonmuscle myosin” value [1] was “decreased”, the “collagen α1(I) and α2(I) mRNAs pulled down with nonmuscle myosin IIB” value [2] was “the great majority of these mRNAs were absent” and the “nonmuscle myosin in polysomal fractions” value [3] was “some nonmuscle myosin was lost, mostly from fractions 1-10”. For the same compound, the “total level of nonmuscle myosin” value [4] was “did not change”, the “association of collagen mRNAs with vimentin” value [5] was “increased” and the “interaction of LARP6 with vimentin” value [6] was “increased”.
